Measurements taken from ChEMBL document CHEMBL2434896, “Carbonic anhydrase inhibitors. Synthesis of heterocyclic 4-substituted pyridine-3-sulfonamide derivatives and their inhibition of the human cytosolic isozymes I and II and transmembrane tumor-associated isozymes IX and XII” (Eur J Med Chem, 2013).
The source made the active and inactive calls.

Key:
[1] = biological target: Carbonic anhydrase 9 (Homo sapiens, UniProt Q16790); experiment: Inhibition of human carbonic anhydrase 9 after 15 mins by stopped flow CO2 hydration assay
[2] = test system: RXF 393; experiment: Growth inhibition of human RXF393 cells at 10 uM after 48 hrs by sulforhodamine B assay; format: functional
[3] = test system: MOLT-4; experiment: Growth inhibition of human MOLT4 cells at 10 uM after 48 hrs by sulforhodamine B assay; format: functional; conditions: MOLT-4, 48 h, read-out: GI
[4] = test system: SR; experiment: Growth inhibition of human SR cells at 10 uM after 48 hrs by sulforhodamine B assay; format: functional; conditions: read-out: GI
[5] = test system: CCRF-CEM; experiment: Growth inhibition of human CCRF-CEM cells at 10 uM after 48 hrs by sulforhodamine B assay; format: functional
[6] = test system: BT-549; experiment: Growth inhibition of human BT549 cells at 10 uM after 48 hrs by sulforhodamine B assay; format: functional
[7] = test system: KM12; experiment: Growth inhibition of human KM12 cells at 10 uM after 48 hrs by sulforhodamine B assay; format: functional
[8] = test system: OVCAR-4; experiment: Growth inhibition of human OVCAR4 cells at 10 uM after 48 hrs by sulforhodamine B assay; format: functional
[9] = test system: NCI-H522; experiment: Growth inhibition of human NCI-H522 cells at 10 uM after 48 hrs by sulforhodamine B assay; format: functional
[10] = test system: U-251; experiment: Growth inhibition of human U251 cells at 10 uM after 48 hrs by sulforhodamine B assay; format: functional
[11] = test system: UACC-62; experiment: Growth inhibition of human UACC62 cells at 10 uM after 48 hrs by sulforhodamine B assay; format: functional
[12] = test system: HOP-62; experiment: Growth inhibition of human HOP62 cells at 10 uM after 48 hrs by sulforhodamine B assay; format: functional
[13] = test system: UO-31; experiment: Growth inhibition of human UO31 cells at 10 uM after 48 hrs by sulforhodamine B assay; format: functional; conditions: UO-31, 48 h, read-out: GI
[14] = test system: A498; experiment: Growth inhibition of human A498 cells at 10 uM after 48 hrs by sulforhodamine B assay; format: functional
[15] = test system: OVCAR-5; experiment: Growth inhibition of human OVCAR5 cells at 10 uM after 48 hrs by sulforhodamine B assay; format: functional
[16] = test system: OVCAR-8; experiment: Growth inhibition of human OVCAR8 cells at 10 uM after 48 hrs by sulforhodamine B assay; format: functional; conditions: OVCAR-8, 48 h, read-out: GI
[17] = test system: EKVX; experiment: Growth inhibition of human EKVX cells at 10 uM after 48 hrs by sulforhodamine B assay; format: functional
[18] = test system: NCI-H322M; experiment: Growth inhibition of human NCI-H322M cells at 10 uM after 48 hrs by sulforhodamine B assay; format: functional; conditions: read-out: GI
[19] = test system: T47D; experiment: Growth inhibition of human T47D cells at 10 uM after 48 hrs by sulforhodamine B assay; format: functional
[20] = test system: HCC 2998; experiment: Growth inhibition of human HCC2998 cells at 10 uM after 48 hrs by sulforhodamine B assay; format: functional
[21] = test system: LOX IMVI; experiment: Growth inhibition of human LOXIMVI cells at 10 uM after 48 hrs by sulforhodamine B assay; format: functional
[22] = test system: SNB-75; experiment: Growth inhibition of human SNB75 cells at 10 uM after 48 hrs by sulforhodamine B assay; format: functional
[23] = test system: Hs-578T; experiment: Growth inhibition of human Hs 578T cells at 10 uM after 48 hrs by sulforhodamine B assay; format: functional
[24] = test system: IGROV-1; experiment: Growth inhibition of human IGROV1 cells at 10 uM after 48 hrs by sulforhodamine B assay; format: functional
[25] = test system: M14; experiment: Growth inhibition of human M14 cells at 10 uM after 48 hrs by sulforhodamine B assay; format: functional; conditions: M14, 48 h, read-out: GI
[26] = test system: MCF7; experiment: Growth inhibition of human MCF7 cells at 10 uM after 48 hrs by sulforhodamine B assay; format: functional; conditions: MCF7, 48 h, read-out: GI
[27] = test system: A549; experiment: Growth inhibition of human A549/ATCC cells at 10 uM after 48 hrs by sulforhodamine B assay; format: functional
[28] = test system: SK-MEL-28; experiment: Growth inhibition of human SK-MEL-28 cells at 10 uM after 48 hrs by sulforhodamine B assay; format: functional, cell-based
[29] = test system: MDA-MB-435; experiment: Growth inhibition of human MDA-MB-435 cells at 10 uM after 48 hrs by sulforhodamine B assay; format: functional
[30] = test system: SF-539; experiment: Growth inhibition of human SF539 cells at 10 uM after 48 hrs by sulforhodamine B assay; format: functional
[31] = test system: NCI-H226; experiment: Growth inhibition of human NCI-H226 cells at 10 uM after 48 hrs by sulforhodamine B assay; format: functional
[32] = test system: SW-620; experiment: Growth inhibition of human SW620 cells at 10 uM after 48 hrs by sulforhodamine B assay; format: functional
[33] = test system: SF-295; experiment: Growth inhibition of human SF295 cells at 10 uM after 48 hrs by sulforhodamine B assay; format: functional
[34] = test system: SF-268; experiment: Growth inhibition of human SF268 cells at 10 uM after 48 hrs by sulforhodamine B assay; format: functional
[35] = test system: HT-29; experiment: Growth inhibition of human HT-29 cells at 10 uM after 48 hrs by sulforhodamine B assay; format: functional
[36] = test system: MDA-MB-231; experiment: Growth inhibition of human MDA-MB-231 cells at 10 uM after 48 hrs by sulforhodamine B assay; format: functional
[37] = test system: 786-0; experiment: Growth inhibition of human 786-0 cells at 10 uM after 48 hrs by sulforhodamine B assay; format: functional
[38] = test system: RPMI-8226; experiment: Growth inhibition of human RPMI8226 cells at 10 uM after 48 hrs by sulforhodamine B assay; format: functional
[39] = test system: SK-MEL-2; experiment: Growth inhibition of human SK-MEL-2 cells at 10 uM after 48 hrs by sulforhodamine B assay; format: functional
[40] = test system: HCT-15; experiment: Growth inhibition of human HCT15 cells at 10 uM after 48 hrs by sulforhodamine B assay; format: functional; conditions: HCT-15, 48 h, read-out: GI
[41] = test system: SN12C; experiment: Growth inhibition of human SN12C cells at 10 uM after 48 hrs by sulforhodamine B assay; format: functional
[42] = test system: UACC-257; experiment: Growth inhibition of human UACC257 cells at 10 uM after 48 hrs by sulforhodamine B assay; format: functional
[43] = test system: DU-145; experiment: Growth inhibition of human DU145 cells at 10 uM after 48 hrs by sulforhodamine B assay; format: functional
[44] = test system: HL-60(TB); experiment: Growth inhibition of human HL-60(TB) cells at 10 uM after 48 hrs by sulforhodamine B assay; format: functional
[45] = test system: ACHN; experiment: Growth inhibition of human ACHN cells at 10 uM after 48 hrs by sulforhodamine B assay; format: functional
[46] = test system: TK-10; experiment: Growth inhibition of human TK10 cells at 10 uM after 48 hrs by sulforhodamine B assay; format: functional
[47] = test system: COLO 205; experiment: Growth inhibition of human COLO205 cells at 10 uM after 48 hrs by sulforhodamine B assay; format: functional
[48] = test system: Malme-3M; experiment: Growth inhibition of human MALME-3M cells at 10 uM after 48 hrs by sulforhodamine B assay; format: functional; conditions: read-out: GI
[49] = test system: HCT-116; experiment: Growth inhibition of human HCT116 cells at 10 uM after 48 hrs by sulforhodamine B assay; format: functional; conditions: HCT-116, 48 h, read-out: GI
[50] = test system: NCI/ADR-RES; experiment: Growth inhibition of human NCI-ADR-RES cells at 10 uM after 48 hrs by sulforhodamine B assay; format: functional
[51] = test system: SK-MEL-5; experiment: Growth inhibition of human SK-MEL-5 cells at 10 uM after 48 hrs by sulforhodamine B assay; format: functional
[52] = test system: SK-OV-3; experiment: Growth inhibition of human SKOV3 cells at 10 uM after 48 hrs by sulforhodamine B assay; format: functional
[53] = test system: NCI-H23; experiment: Growth inhibition of human NCI-H23 cells at 10 uM after 48 hrs by sulforhodamine B assay; format: functional
[54] = test system: NCI-H460; experiment: Growth inhibition of human NCI-H460 cells at 10 uM after 48 hrs by sulforhodamine B assay; format: functional
[55] = test system: PC-3; experiment: Growth inhibition of human PC3 cells at 10 uM after 48 hrs by sulforhodamine B assay; format: functional
[56] = test system: CAKI-1; experiment: Growth inhibition of human CAKI-1 cells at 10 uM after 48 hrs by sulforhodamine B assay; format: functional; conditions: CAKI-1, 48 h, read-out: GI
[57] = test system: OVCAR-3; experiment: Growth inhibition of human OVCAR3 cells at 10 uM after 48 hrs by sulforhodamine B assay; format: functional
[58] = test system: SNB-19; experiment: Growth inhibition of human SNB19 cells at 10 uM after 48 hrs by sulforhodamine B assay; format: functional

CCOC(=O)CCc1c(C)nn(-c2ccncc2S(N)(=O)=O)c1C
19.5 nM: Ki [1]

NS(=O)(=O)c1cnccc1N1CCN(c2ccccc2F)CC1
7%: inhibition of growth at 10 µM [18]
148 nM: Ki [1]
13%: inhibition of growth at 10 µM [13]
1%: inhibition of growth at 10 µM [40]
inactive: growth inhibition (GI) [2] | growth inhibition (GI) [5] | growth inhibition (GI) [6] | growth inhibition (GI) [7] | growth inhibition (GI) [8] | growth inhibition (GI) [9] | growth inhibition (GI) [10] | growth inhibition (GI) [11] | growth inhibition (GI) [12] | growth inhibition (GI) [14] | growth inhibition (GI) [15] | growth inhibition (GI) [17] | growth inhibition (GI) [19] | growth inhibition (GI) [20] | growth inhibition (GI) [21] | growth inhibition (GI) [22] | growth inhibition (GI) [23] | growth inhibition (GI) [24] | growth inhibition (GI) [27] | growth inhibition (GI) [28] | growth inhibition (GI) [29] | growth inhibition (GI) [30] | growth inhibition (GI) [31] | growth inhibition (GI) [32] | growth inhibition (GI) [33] | growth inhibition (GI) [34] | growth inhibition (GI) [35] | growth inhibition (GI) [36] | growth inhibition (GI) [37] | growth inhibition (GI) [38] | growth inhibition (GI) [39] | growth inhibition (GI) [41] | growth inhibition (GI) [42] | growth inhibition (GI) [43] | growth inhibition (GI) [44] | growth inhibition (GI) [45] | growth inhibition (GI) [46] | growth inhibition (GI) [47] | growth inhibition (GI) [50] | growth inhibition (GI) [51] | growth inhibition (GI) [52] | growth inhibition (GI) [53] | growth inhibition (GI) [54] | growth inhibition (GI) [55] | growth inhibition (GI) [57] | growth inhibition (GI) [58]
6%: inhibition of growth at 10 µM [4] | inhibition of growth at 10 µM [26]
5%: inhibition of growth at 10 µM [25]
2%: inhibition of growth at 10 µM [3] | inhibition of growth at 10 µM [16]
4%: inhibition of growth at 10 µM [48]
3%: inhibition of growth at 10 µM [49] | inhibition of growth at 10 µM [56]

Cc1cc(C)n(-c2ccncc2S(N)(=O)=O)n1
24.8 nM: Ki [1]

NS(=O)(=O)c1cnccc1N1CCN(c2ccc(F)cc2)CC1
239 nM: Ki [1]
